According to US6262017A, “Peptides for altering osteoblast adhesion” (Research Corporation Technologies, Inc., priority 1998, dated 2001):
Peptide text beside a SMILES is read from it.

Legend:
[1] = tested on: BMD osteoclasts (bone-resorbing cells); experiment: Four-hour adhesion of Table 3 (title: BMD osteoblast-like cell; text: BMD osteoclasts) on peptide-modified glass; assay type: cell-based; conditions: for Cell density, Average: Table 3, four-hour adhesion, peptide immobilized on glass
Source text: (§1) Peptides were immobilized on substrate surfaces (borosilicate glass, 18 mm round coverslips; Fisher) using silane coupling techniques adapted from published protocols [Weetall Applied Biochem. Biotech. 41, 158-188 (1993); Robinson et al. Biochim. Biophys. Acta 242, 659-661 (1971); and Baum et al. Biochim. Biophys. Acta 268, 411-414 (1972)], the disclosures of which are incorporated herein by reference. Briefly, 3-aminopropyltriethoxysilane (Sigma) was allowed to react with hydroxyl groups on the material surfaces to produce "aminophase" substrates.
(§2) In preparing for peptide immobilization, borosilicate glass coverslips (Fisher) were etched for one hour in a 3:1 (v/v) solution of 2 N sulfuric acid and 2 N nitric acid, degreased in acetone and ethanol, and rinsed with distilled water. The degreased and acid-etched substrates were placed in glass petri dishes which had been previously cleaned with a 3.5% solution of 30% hydrogen peroxide in 18 M sulfuric acid.
(§3) The substrates were dried at 160° C. for at least one hour, rinsed with dry acetone, and immersed in 2% 3-aminopropyltriethoxysilane in dry acetone, supplemented with 2% triethylamine under an argon atmosphere at […] for one hour. The substrates were rinsed (under an argon atmosphere) once with methylene chloride and twice with dry acetone, and cured under argon at 120° C. for three hours.
Peptides were covalently bound to immobilized exposed amine groups on the substrate surfaces during a twenty-minute incubation (under argon) with a 25:25:1 (v/v/v) solution of peptide (0.1 mM in dry N,N-dimethylformamide):1-ethyl-3-(3-dimethylaminopropyl)carbodiimide (2.5 mg/mL in dry N,N-dimethylformamide): n-ethylmorpholine. Unreacted amine groups were passivated by soaking peptide-modified substrates in acetic anhydride for 5 minutes; absorbed peptides were then removed by soaking for 5 minutes in 4 M urea, rinsing in distilled water, and soaking for 5 minutes in 1 M sodium chloride. Peptide-modified substrates were then thoroughly rinsed in distilled water prior to sterilization and use. […]

osteoblasts [2] = experiment: Osteoblast four-hour adhesion in the absence and presence of 0.2 U/ml heparinase; assay type: cell-based; conditions: for Cell density, Average: Table 10, four-hour adhesion
Source text: The heparinase used degrades heparan sulfate in a very selective manner.
as §1, §2, §3
(§4) Peptides were covalently bound to immobilized exposed amine groups on the substrate surfaces during a twenty-minute incubation (under argon) with a 25:25:1 (v/v/v) solution of peptide (0.1 mM in dry N,N-dimethylformamide):1-ethyl-3-(3-dimethylaminopropyl)carbodiimide (2.5 mg/mL in dry N,N-dimethylformamide): n-ethylmorpholine. Unreacted amine groups were passivated by soaking peptide-modified substrates in acetic anhydride for 5 minutes; absorbed peptides were then removed by soaking for 5 minutes in 4 M urea, rinsing in distilled water, and soaking for 5 minutes in 1 M sodium chloride. Peptide-modified substrates were then thoroughly rinsed in distilled water prior to sterilization and use.
(§5) In all experiments performed in the present invention, substrates which had been aminated but not peptide-grafted (i.e., aminophase substrates) were used as controls. Substrates which had been etched in a 3:1 (v/v) solution of 2 N sulfuric acid: 2 N nitric acid, degreased in acetone and ethanol, and rinsed copiously with distilled water were used as references. Glass substrates were sterilized via overnight ultraviolet irradiation prior to use in experiments.

calvarial osteoblasts = experiment: Calvarial osteoblast two-hour competitive adhesion on KRSRGGG-modified substrates after pre-incubation with soluble peptide; assay type: cell-based
[3] = tested on: BMD osteoblast-like cells; experiment: BMD osteoblast-like two-hour competitive adhesion on KRSRGGG-modified substrates; assay type: cell-based
Protocol: The effect of pre-incubation of BMD osteoblast-like and osteoclast-like cells was also examined with similar results (Tables 8 and 9).

osteoblasts [4] = experiment: Osteoblast four-hour adhesion on peptide-modified glass substrates; assay type: cell-based
Source text: Using standard protocols, 3-aminopropyltriethoxysilane was used to immobilize exposed amine groups on the surfaces of glass substrates, and 1-ethyl-3-(3dimethylaminopropyl)carbodimide was used to bind peptides having the sequence KRSRGGG (SEQ ID NO:4) to the exposed amine groups on the glass substrates.
as §1, §2, §3, §4
Substrates which had been etched in a 3:1 (v/v) solution of 2 N sulfuric acid: 2 N nitric acid, degreased in acetone and ethanol, and rinsed copiously with distilled water were used as references. Glass substrates were sterilized via overnight ultraviolet irradiation prior to use in experiments.

[5] = tested on: bone marrow derived (BMD) osteoblast-like cells; experiment: Bone marrow-derived osteoblast-like cell four-hour adhesion on peptide-modified glass; assay type: cell-based; conditions: Table 2, peptide immobilized on glass
Source text: as §1, §2
as §3, with “hours. […]” for “hours.”

fibroblasts = experiment: Fibroblast adhesion on peptide-modified surfaces; assay type: cell-based; conditions: surfaces modified with peptide
endothelial cells = experiment: Endothelial cell four-hour adhesion on peptide-modified glass; assay type: cell-based; conditions: for Cell density, Average: four-hour adhesion, peptide immobilized on glass
Source text: as §1, §2, §3, §4, §5

osteoblasts [6] = conditions: cultured for two weeks on peptide-modified Ti-6Al-4V
Source text: In the present study, medical grade Ti-6Al-4V stock (ASTM F-136; Osteonics) was sectioned into coupons using a low-speed saw equipped with a diamond wafering blade. The metal coupons were then polished to a 30 micron finish via sanding (using 600 grit paper on a sanding wheel), polishing to a 15 micron finish and then to a 9 micron finish (using diamond spray on a polishing wheel), and finally polishing to a 3 micron finish using aluminum oxide (Al2 O3) mixed with 30% hydrogen peroxide on a polishing wheel), according to standard techniques. Polished metal coupons were degreased with acetone and ethanol and rinsed copiously with distilled water before peptides were immobilized on the metal surfaces (via the aforementioned techniques).

[7] = Table 8, peptide concentration 0.5 mM
[8] = Table 8, peptide concentration 1.0 mM
[9] = Table 8, peptide concentration 1.5 mM
[10] = Table 8, peptide concentration 2.0 mM
[11] = Table 1, peptide immobilized on glass
[12] = Table 6, KRSR peptides of different lengths on glass
[13] = Table 4 (second, identical print)

Molecule | Cell density, Average [1] [Cells/cm^2] | Cell density, Average (osteoblasts [2]; Heparinase 0.2 U/ml) [Cells/cm^2] | Cell density, Average (osteoblasts [2]; Heparinase none) [Cells/cm^2] | Cell Adhesion expressed as % control [3, 7] [% control] | Cell Adhesion expressed as % control [3, 8] [% control] | Cell Adhesion expressed as % control [3, 9] [% control] | Cell Adhesion expressed as % control [3, 10] [% control] | Cell density, Average (osteoblasts [4]; [11]) [Cells/cm^2] | Cell density, Average (osteoblasts [4]; [12]) [Cells/cm^2] | Cell density, Average [5] [Cells/cm^2] | Cell density, Average (endothelial cells; Table 4 (first print)) [Cells/cm^2] | Cell density, Average (endothelial cells; [13]) [Cells/cm^2] | Cell density, Average (osteoblasts [4]; Table 5, KRSR vs HHWH on glass) [Cells/cm^2] | other results
N=C(N)NCCC[C@H](NC(=O)[C@H](CO)NC(=O)[C@H](CCCNC(=N)N)NC(=O)[C@@H](N)CCCCN)C(=O)NCC(=O)NCC(=O)NCC(=O)O [KRSRGGG, H-Lys-Arg-Ser-Arg-(Gly)3 --OH] (H-KRSRGGG-OH) | 2377 | 330 | 2145 | 81.63 | 78.91 | 66.67 | 55.5 | 2145 | 1770 | 2332 | 1600 | 1600 | – | BMD osteoclast adhesion versus other treated or untreated surfaces (in words) ([1]; peptide-modified surfaces): in greater numbers; Effect of heparinase treatment on osteoblast adhesion (in words) (osteoblasts [2]; heparinase treatment, peptide-modified substrate): significantly inhibited adhesion; Effect of pre-incubation of osteoblasts with peptide on adhesion to KRSR-modified substrate (in words) (calvarial osteoblasts): significant decrease in adhesion; Fibroblast adhesion to peptide-modified surfaces (in words) (fibroblasts): do not adhere in significantly greater numbers; Endothelial cell adhesion to peptide-modified surfaces (in words) (endothelial cells; surfaces modified with peptide): do not adhere in significantly greater numbers
N=C(N)NCCC[C@H](NC(=O)[C@H](CO)NC(=O)[C@H](CO)NC(=O)[C@@H](N)CCCCN)C(=O)NCC(=O)NCC(=O)NCC(=O)O [KSSRGGG, Lysine-Serine-Serine-Arginine-Glycine-Glycine-Glycine, reference compound] (H-KSSRGGG-OH) | – | – | – | 109.52 | 93.65 | 101.59 | 107.94 | – | – | – | – | – | – | –
Arginine-Aspartic Acid-Glycine-Serine [RDGS, reference compound] | 2188 | 378 | 1656 | – | – | – | – | 1656 | – | 1712 | 1570 | 1570 | – | Osteoblast morphology and cytoskeletal organization (osteoblasts [6]): normal morphology and cytoskeletal organization
H-Lys-Arg-Ser-Arg-OH (H-KRSR-OH) | – | – | – | – | – | – | – | – | 1508 | – | – | – | 1508 | –
Histidine-Histidine-Tryptophan-Histidine (HHWH) [reference compound] | – | – | – | – | – | – | – | – | – | – | – | – | 1080 | –
KRSRQGGGGG [KRSR peptide of a different (longer) spacer length attached to the substrate] | – | – | – | – | – | – | – | – | 1708 | – | – | – | – | –
